From PMC10177510, “A Multicenter, Open-Label, Phase I/II Study of FN-1501 in Patients with Advanced Solid Tumors” (Cancers, 2023)

Test: Phase I/II dose escalation: safety and tolerability (DLT, TEAE)
Assay type: in vivo
Experimental: This Phase 1/2, FIH, open-label, multi-center, single-arm, dose-escalation study was conducted in pts with histologically or cytologically confirmed advanced solid tumors or R/R AML.
In the absence of worrisome toxicity, the remaining pts could be enrolled and dosed in that cohort. Safety evaluations were performed by investigators, the medical monitor, and the Sponsor. A Safety Monitoring Committee determined dose levels to be administered during dose escalation based on data available from the current and previous dose levels.

CN1CCN(Cc2ccc(NC(=O)c3[nH]ncc3Nc3ncnc4[nH]ccc34)cc2)CC1 [FN-1501]
2: Total patients with at least 1 TEAE (72 mg/day, N = 3) | Nausea, patients with event (96 mg/day, N = 5) | Vomiting, patients with event (96 mg/day, N = 5) | Total patients with at least 1 TEAE (128 mg/day, N = 3) | Constipation, patients with event (170 mg/day, N = 4) | Diarrhea, patients with event (170 mg/day, N = 4) | Dyspnea, patients with event (170 mg/day, N = 4) | Infusion-related reaction, patients with event (170 mg/day, N = 4)
0: Dizziness, patients with event (72 mg/day, N = 3) | Dyspnea, patients with event (72 mg/day, N = 3) | Fatigue, patients with event (72 mg/day, N = 3) | Infusion-related reaction, patients with event (72 mg/day, N = 3) | Pyrexia, patients with event (72 mg/day, N = 3) | Vomiting, patients with event (72 mg/day, N = 3) | Dose-Limiting Toxicity (96 mg/day, 5 patients) | Abdominal pain, patients with event (96 mg/day, N = 5) | Back pain, patients with event (96 mg/day, N = 5) | Decreased appetite, patients with event (96 mg/day, N = 5) | Dyspnea, patients with event (96 mg/day, N = 5) | Fatigue, patients with event (96 mg/day, N = 5) | Oedema peripheral, patients with event (96 mg/day, N = 5) | Pyrexia, patients with event (96 mg/day, N = 5) | Dose-Limiting Toxicity (128 mg/day, 3 patients) | Constipation, patients with event (128 mg/day, N = 3) | Diarrhea, patients with event (128 mg/day, N = 3) | Infusion-related reaction, patients with event (128 mg/day, N = 3) | Vomiting, patients with event (128 mg/day, N = 3) | Dose-Limiting Toxicity (170 mg/day, 4 patients) | Back pain, patients with event (170 mg/day, N = 4) | Oedema peripheral, patients with event (170 mg/day, N = 4) | Pyrexia, patients with event (170 mg/day, N = 4)
43: Total number of TEAEs (128 mg/day, N = 3)
1 (25%): DLT of Grade 4 thrombocytopenia, pts (226 mg/d cohort)
1: Diarrhea, patients with event (72 mg/day, N = 3) | Nausea, patients with event (72 mg/day, N = 3) | Oedema peripheral, patients with event (72 mg/day, N = 3) | Small intestinal obstruction, Grade ≥ 3 TEAE, n (%) (72 mg/day, N = 3) | Constipation, patients with event (96 mg/day, N = 5) | Diarrhea, patients with event (96 mg/day, N = 5) | Diarrhoea, Grade ≥ 3 TEAE, n (%) (96 mg/day, N = 5) | Dizziness, patients with event (96 mg/day, N = 5) | Infusion-related reaction, patients with event (96 mg/day, N = 5) | Lipase increased, Grade ≥ 3 TEAE, n (%) (96 mg/day, N = 5) | Pneumonia aspiration, Grade ≥ 3 TEAE, n (%) (96 mg/day, N = 5) | Pneumonia, Grade ≥ 3 TEAE, n (%) (96 mg/day, N = 5) | Pneumothorax, Grade ≥ 3 TEAE, n (%) (96 mg/day, N = 5) | Abdominal pain, patients with event (128 mg/day, N = 3) | Acute kidney injury, Grade ≥ 3 TEAE, n (%) (128 mg/day, N = 3) | Aspartate aminotransferase increased, Grade ≥ 3 TEAE, n (%) (128 mg/day, N = 3) | Back pain, patients with event (128 mg/day, N = 3) | Blood creatinine increased, Grade ≥ 3 TEAE, n (%) (128 mg/day, N = 3) | Decreased appetite, patients with event (128 mg/day, N = 3) | Dizziness, patients with event (128 mg/day, N = 3) | Dyspnea, patients with event (128 mg/day, N = 3) | Fatigue, patients with event (128 mg/day, N = 3) | Nausea, patients with event (128 mg/day, N = 3) | Oedema peripheral, patients with event (128 mg/day, N = 3) | Pyrexia, patients with event (128 mg/day, N = 3) | Abdominal pain, patients with event (170 mg/day, N = 4) | Decreased appetite, patients with event (170 mg/day, N = 4) | Dizziness, patients with event (170 mg/day, N = 4) | Hyponatraemia, Grade ≥ 3 TEAE, n (%) (170 mg/day, N = 4) | Nausea, patients with event (170 mg/day, N = 4) | Vomiting, patients with event (170 mg/day, N = 4)
15: Total number of TEAEs (72 mg/day, N = 3)
1 (25): Bacteraemia, Grade ≥ 3 TEAE, n (%) (170 mg/day, N = 4) | Dehydration, Grade ≥ 3 TEAE, n (%) (170 mg/day, N = 4) | Hypoxia, Grade ≥ 3 TEAE, n (%) (170 mg/day, N = 4) | Lethargy, Grade ≥ 3 TEAE, n (%) (170 mg/day, N = 4) | Neutropenia, Grade ≥ 3 TEAE, n (%) (170 mg/day, N = 4)
5: Total patients with at least 1 TEAE (96 mg/day, N = 5)
50%: pts with ≥Grade 3 AEs that qualified as DLTs (226 mg/d cohort)
33: Total number of TEAEs (96 mg/day, N = 5)
60: Total number of TEAEs (170 mg/day, N = 4)
4: Fatigue, patients with event (170 mg/day, N = 4) | Total patients with at least 1 TEAE (170 mg/day, N = 4)
